Consider 65 compounds from a melting point compilation (Tetko et al.; mined from patent text by program, amines drawn as free bases though some values may be those of a salt).

Bounds are passed on as bounds.

In the case of `CCOCCOC(=O)C1=C(C)NC(COC(N)=O)=C(C(=O)OCC)C1c1cccc([N+](=O)[O-])c1` (stereo not given), the melting point lay in the range of 135 to 138 °C.
`C[C@H](NC(=O)Cc1ccc(F)cc1)C(=O)N[C@@H]1C(=O)Nc2ccccc2O[C@@H]1c1ccccc1` displayed a melting point of 130 to 140 °C.
In the case of `CC(C)C[C@H](NC(=O)OC(C)(C)C)C(=O)N1CCN(C(c2ccc(F)cc2)c2ccc(F)cc2)CC1`, the melting point was 59 to 66 °C.
`CC(C)(C)[C@H](N)C(N)=O` registered a melting point of 104 to 105 °C.
`COC(=O)c1cc(C)c(OCCNC(=O)C2Cc3ccccc3N2S(=O)(=O)c2ccc(-c3ccc(F)cc3)cc2)c(C)c1` (stereo not given) gave a melting point of 91 °C.
Take `CCNn1cc(C(=O)O)c(=O)c2ccc(C)nc21`: the melting point lay in the range of 166 to 169 °C.
The value for `O=C(c1cc(-c2ccccc2)c(=O)n2c1-c1ccccc1C2)N1CCSCC1` was 266 to 268 °C.
In turn, `O=[N+]([O-])c1ncc(Cl)cc1O` showed a melting point of 97 °C.
As for `CCOC(=O)c1cnc2cc(OC)ccc2c1O`, the melting point was above 260 °C.
As to `C=C1CC(COc2cccc3cccnc23)(c2ccccc2)OC1=O` (stereo not given), the melting point is 101 to 102 °C.
For the compound `COc1ccc(-c2cc(-c3nccs3)c(=O)n(C)c2-c2ccncc2)cc1`, the melting point was in the range of 224 to 225 °C.
Regarding `O=c1[nH]c(=O)c2c(N3CCCCC3)cccc2[nH]1`, the melting point was above 280 °C.
As to `Clc1ccc(C(Cl)c2cc3cc(Cl)cc(Cl)c3o2)cc1` (stereo not given), the melting point is 72 to 74 °C.
As to `CCOC(=O)c1cn(C)c2cnc3c(F)c(N4CCC(O)(c5cccc(C(F)(F)F)c5)CC4)ccc3c2c1=O`, the melting point was above 260 °C.
Compound `N#CCOc1ccc(F)c(C(N)=O)c1F` had a melting point of 122 to 123 °C.
`O=C1c2ccccc2C(O)(C(F)(F)F)c2ccccc21` registered a melting point of 153 to 155 °C.
For the compound `OCc1cc(N2CCCC2)c(Br)cn1`, the melting point lay in the range of 108 to 110 °C.
With `CCC(=O)NCC1Cc2cccc3cccc1c23` (stereo not given), the melting point amounted to 111 °C.
As for `COC(=O)c1cccc2[nH]nc(S(=O)(=O)NC(C)(C)C)c12`, the melting point is 218 to 220 °C.
In the case of `CCn1cc(C)c(NS(=O)(=O)c2ccc(NC(C)=O)cc2)nc1=O`, the melting point is 235 to 239 °C.
Next, `Cc1[nH]c2ccccc2c1C(=O)CCn1ccnc1`: 196 to 197 °C; `C=CCC1(C(C)(C)C(=O)OCC)C(=O)NC(=O)NC1=O`: 112 to 114 °C.
The value for `COc1ccc(S(=O)(=O)N2CCc3cccc(-c4ccc(F)cc4)c32)cc1` was 178 to 179 °C; that for `CCCN(CCC)CC1CCn2c(nc3ccccc32)S1` (stereo not given) was 82 to 84 °C.
With `O=C(O)c1cccc(-c2cccc(OCCc3cccc(C(F)(F)F)c3)n2)c1`, the melting point was 135 to 136 °C.
`Nc1ccc(O)cc1/C=C/C(=O)CC(=O)/C=C/c1ccc(O)cc1` yielded a melting point of 186 to 192 °C.
`CC1CCCN(S(=O)(=O)c2ccc(OC(C)C)c(C(=O)O)c2)C1` (stereo not given) displayed a melting point of 102 to 104 °C.
Compound `CCCCCNC(=O)N(C)c1cccc(-c2ccc(/C=C(\OCC)C(=O)O)cc2)n1` yielded a melting point of 162 °C.
`CCOC(=O)Cc1sc(Sc2cccc(C(=O)OCC)n2)nc1C` displayed a melting point of 73 to 75 °C.
The value for `CCOC(=O)c1nn(-c2ccccc2)c(=O)c2c1c1ccc(Cl)cc1n2C` was 216 to 218 °C.
The value for `C=C(C)C(=O)Nc1cccc(O)c1` was 171 to 173 °C.
Compound `CCCCOCCOCCOc1ccc(-c2ccc(C(=O)O)cc2)cc1` came in with a melting point of 174 to 176 °C.
Take `COc1cccc(NC(=O)c2ccn3c2CSC3c2cccnc2)n1` (stereo not given): the melting point stood at 154 °C.
`CN(C)c1ccccc1CSC1=NC(=O)NC1(C)C` registered a melting point of 160 to 162 °C.
For `CCCNC(=N)NC(=O)NCc1ccccn1`, the melting point is 195 to 197 °C.
For `O=C1CCC(n2nc(-c3c(-c4ccccc4)nn4ccccc34)ccc2=O)CC1`, the melting point was in the range of 138 to 140 °C.
The value for `COC(=O)c1ccc(CN2C(=O)C3(COc4cc5c(cc43)OCCO5)c3ccccc32)o1` (stereo not given) was 88 to 92 °C; that for `Cc1oc(-c2ccccc2)nc1COc1ccc(O)cc1` was 168 to 169 °C; that for `NCCCP(=O)(O)Cc1ccccc1` was 69 to 72 °C.
`Cc1c(-c2cccnc2)n(Cc2ccc(C(=O)O)cc2)c2ccccc12` displayed a melting point of 273 to 275 °C.
The compound `Cc1ccccc1C(=O)CC(C#N)C#N` returned a melting point of 92 to 93 °C.
Next, `CCCCCCCCCCOc1ccc(C(=O)OCC(=O)OC)cc1`: 30 to 32 °C; `CC(C)OC(=O)C1=C2SCC(=CC(=O)N(C)C)N2CC1`: 159 to 160 °C; `ClCc1coc(-c2sccc2Cl)n1`: 84 to 85 °C.
`C[C@@](O)(C(=O)Nc1ccc(S(=O)(=O)c2ccccc2NCCO)cc1Cl)C(F)(F)F` had a melting point of 68 to 70 °C.
The value for `Cc1ccc(NC(=O)C(=O)N2CCC(Cc3ccccc3)CC2)cc1` was 115 to 117 °C.
`COc1cc(O)c2c(c1C)C(=O)SCC(=O)N[C@@H](c1nc(C)no1)COC2` had a melting point of 194 to 196 °C.
Next, `CCCCCS(=O)(=O)NC(=O)/C=C/c1ccc(OCCOC2CC2)cc1Oc1ncc(C(F)(F)F)cc1Cl`: 105 to 106 °C; `C[Si](C)(C)CC1=C[C@@H](c2ccccc2)[C@H]2C(=O)OC(=O)[C@H]2C1` (racemic): 126 °C.
`CCOC(=O)NC(=S)Nc1ccc(C(=O)OC(C)(C)C)cc1` yielded a melting point of 119 to 120 °C.
For `CN1C2C=C(c3cc4ccccc4s3)CC1CCC2` (stereo not given), the melting point fell in the range of 91.3 to 93.5 °C.
Turning to `O=C1C=C(Cl)C(=O)c2ccccc21`, the melting point was in the range of 154 to 156 °C.
The value for `CC12CC3OC3CC1CCC1C2CCC2(C)C(O)C(N3CCC(O)CC3)CC12` (stereo not given) was 204 to 206 °C; that for `CC1=NOC(c2c(S(C)(=O)=O)ccc(C(=O)O)c2Cl)C1` (stereo not given) was 175 °C; that for `CC1=C(C(=O)OC(C)(C)C)C(c2ccccc2Cl)c2c[nH]nc2N1` (stereo not given) was 207 °C.
In turn, `CC(C)(C)NCC(O)COc1ccc2c(=O)cc(-c3cc(OCc4ccccc4)cc(OCc4ccccc4)c3)oc2c1` (stereo not given) gave a melting point of 170 to 171 °C.
Compound `O=C(c1ccc(-c2ccccc2)cc1)N1CCc2cn[nH]c2-c2ncccc21` had a melting point of 205 to 206 °C.
Next, `COC(=O)c1cccc(C(NCC(=O)Nc2c(C(C)C)cccc2C(C)C)c2ccccc2)c1` (stereo not given): 131 to 132 °C.
Next, `Cc1nc2c(O)c(CCC(=O)c3cccs3)c(C(=O)N(C)C)cc2n1C`: 233 to 235 °C; `CSc1noc(-c2ccc(OCCCOc3ccccc3)cc2)c1C#N`: 121 to 123 °C.
In turn, `Cc1ccc(-c2nc(-c3ccc(C)cc3)nc(-c3ccc(C)cc3)n2)cc1` showed a melting point of 282 to 285 °C.
In turn, `COc1cc2c(cc1O)CCC1C2CCC2(C)C1CCC21OCCO1` (stereo not given) displayed a melting point of 150 to 151 °C.
For the compound `Cc1nn(C)c(N)c1C(=O)Nc1cccc(Cl)c1`, the melting point lay in the range of 87 to 92 °C.
As for `O=C(CCN1CCCCC1)Nc1cccc([N+](=O)[O-])c1`, the melting point is 95 to 96 °C.
The value for `Cc1cc(C)c(-c2cn(C)c3nc(NC(=O)N(C)C)n(C)c(=O)c23)c(C)c1` was 221 to 223 °C.

Usually melting point stands for the temperature of the solid-liquid transition.
